Calls of active or inactive are those of the source.
Assays:
[1] = target: D(1B) dopamine receptor (Homo sapiens) (UniProt P21918); experiment: Agonist activity at human D5 receptor at 100 uM to 5 mM
[2] = target: T1, Parathyroid hormone/parathyroid hormone-related peptide receptor (Homo sapiens) (UniProt Q03431); experiment: Agonist activity at human PTH receptor at 100 uM to 5 mM
T1 sequence (whole entry): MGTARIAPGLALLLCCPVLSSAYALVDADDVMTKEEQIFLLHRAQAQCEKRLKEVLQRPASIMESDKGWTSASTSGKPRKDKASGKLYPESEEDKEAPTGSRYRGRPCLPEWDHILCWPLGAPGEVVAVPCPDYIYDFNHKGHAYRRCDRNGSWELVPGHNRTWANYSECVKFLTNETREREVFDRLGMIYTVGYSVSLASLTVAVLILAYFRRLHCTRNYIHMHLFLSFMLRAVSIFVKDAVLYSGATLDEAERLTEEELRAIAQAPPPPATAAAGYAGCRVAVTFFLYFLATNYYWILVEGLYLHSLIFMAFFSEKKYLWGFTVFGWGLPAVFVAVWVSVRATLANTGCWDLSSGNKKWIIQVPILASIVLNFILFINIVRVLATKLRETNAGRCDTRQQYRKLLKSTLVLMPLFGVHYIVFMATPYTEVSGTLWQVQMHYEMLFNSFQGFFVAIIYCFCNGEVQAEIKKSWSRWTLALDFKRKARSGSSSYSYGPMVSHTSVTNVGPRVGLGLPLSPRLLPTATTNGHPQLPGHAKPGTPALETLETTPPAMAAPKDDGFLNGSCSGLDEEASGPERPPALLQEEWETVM

[3] = target: Glucagon receptor (Homo sapiens) (UniProt P47871); experiment: Agonist activity at human Glu receptor at 100 uM to 5 mM
Sequence of Glucagon receptor (Homo sapiens) (P47871 whole entry): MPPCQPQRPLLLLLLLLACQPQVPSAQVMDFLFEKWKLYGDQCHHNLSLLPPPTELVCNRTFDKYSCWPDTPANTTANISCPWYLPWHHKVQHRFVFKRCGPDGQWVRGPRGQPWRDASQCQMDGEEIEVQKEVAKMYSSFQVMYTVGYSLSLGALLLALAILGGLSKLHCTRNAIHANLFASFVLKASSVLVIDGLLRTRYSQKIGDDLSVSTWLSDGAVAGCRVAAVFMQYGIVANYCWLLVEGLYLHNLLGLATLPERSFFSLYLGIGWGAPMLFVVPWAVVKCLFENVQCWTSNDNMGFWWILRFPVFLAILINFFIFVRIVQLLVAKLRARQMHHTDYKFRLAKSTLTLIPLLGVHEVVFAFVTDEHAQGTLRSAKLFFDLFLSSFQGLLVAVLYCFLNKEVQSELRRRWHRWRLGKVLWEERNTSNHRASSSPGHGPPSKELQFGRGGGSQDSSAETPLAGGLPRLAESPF

[4] = target: T2, Orexin receptor type 2 (Homo sapiens) (UniProt O43614); experiment: Agonist activity at human orexin 2 receptor at 100 uM to 5 mM
T2 sequence (whole entry): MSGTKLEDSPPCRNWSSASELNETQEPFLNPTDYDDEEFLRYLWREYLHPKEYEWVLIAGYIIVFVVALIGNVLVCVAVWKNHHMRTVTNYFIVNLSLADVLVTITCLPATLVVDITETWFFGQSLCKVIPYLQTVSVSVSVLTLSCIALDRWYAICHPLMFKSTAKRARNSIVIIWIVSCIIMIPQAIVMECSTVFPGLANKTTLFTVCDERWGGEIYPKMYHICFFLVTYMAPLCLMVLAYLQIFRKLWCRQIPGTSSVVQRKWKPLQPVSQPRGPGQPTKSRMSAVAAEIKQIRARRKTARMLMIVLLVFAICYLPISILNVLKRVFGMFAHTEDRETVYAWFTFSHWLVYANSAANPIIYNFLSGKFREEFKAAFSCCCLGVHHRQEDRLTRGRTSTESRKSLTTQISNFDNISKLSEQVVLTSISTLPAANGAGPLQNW

[5] = target: Adrenocorticotropic hormone receptor (Homo sapiens) (UniProt Q01718); experiment: Agonist activity at human MC2 receptor at 100 uM to 5 mM
Sequence of Adrenocorticotropic hormone receptor (Homo sapiens) (Q01718 whole entry): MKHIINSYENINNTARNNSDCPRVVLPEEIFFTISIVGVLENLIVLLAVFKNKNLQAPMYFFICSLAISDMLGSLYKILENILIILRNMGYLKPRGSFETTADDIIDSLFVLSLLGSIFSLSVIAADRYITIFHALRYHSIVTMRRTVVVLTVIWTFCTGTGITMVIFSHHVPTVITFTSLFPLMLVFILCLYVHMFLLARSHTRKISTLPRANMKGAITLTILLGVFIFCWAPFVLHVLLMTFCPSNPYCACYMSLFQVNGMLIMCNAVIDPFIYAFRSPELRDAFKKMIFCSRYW

[6] = target: Melanocortin receptor 3 (Mus musculus) (UniProt P33033); experiment: Agonist activity at mouse MC3 receptor at 100 uM to 5 mM
Sequence of Melanocortin receptor 3 (Mus musculus) (P33033 whole entry): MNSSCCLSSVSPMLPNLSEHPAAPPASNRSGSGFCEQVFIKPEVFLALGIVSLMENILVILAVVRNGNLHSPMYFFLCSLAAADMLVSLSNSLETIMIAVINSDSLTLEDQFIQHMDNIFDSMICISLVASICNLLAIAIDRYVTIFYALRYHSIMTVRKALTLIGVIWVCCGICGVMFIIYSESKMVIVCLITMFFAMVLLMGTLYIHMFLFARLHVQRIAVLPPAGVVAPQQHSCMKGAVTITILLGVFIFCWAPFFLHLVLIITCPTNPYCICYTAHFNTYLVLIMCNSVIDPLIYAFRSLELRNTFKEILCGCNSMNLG

[7] = target: Melanin-concentrating hormone receptor 1 (Homo sapiens) (UniProt Q99705); experiment: Agonist activity at human MCH1 receptor at 100 uM to 5 mM
Sequence of Melanin-concentrating hormone receptor 1 (Homo sapiens) (Q99705 whole entry): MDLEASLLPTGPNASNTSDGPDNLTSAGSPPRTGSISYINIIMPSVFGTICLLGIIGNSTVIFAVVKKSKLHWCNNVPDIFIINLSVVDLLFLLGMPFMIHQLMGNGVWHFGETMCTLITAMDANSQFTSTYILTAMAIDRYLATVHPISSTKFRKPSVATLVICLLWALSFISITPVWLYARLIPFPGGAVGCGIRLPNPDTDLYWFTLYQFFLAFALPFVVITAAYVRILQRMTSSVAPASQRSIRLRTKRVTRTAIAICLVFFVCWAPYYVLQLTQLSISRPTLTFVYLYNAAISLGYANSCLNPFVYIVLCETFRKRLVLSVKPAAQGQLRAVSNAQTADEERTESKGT

[8] = target: T3, Neuromedin-U receptor 1 (Homo sapiens) (UniProt Q9HB89); experiment: Agonist activity at human NMU1 receptor at 100 uM to 5 mM
T3 sequence (whole entry): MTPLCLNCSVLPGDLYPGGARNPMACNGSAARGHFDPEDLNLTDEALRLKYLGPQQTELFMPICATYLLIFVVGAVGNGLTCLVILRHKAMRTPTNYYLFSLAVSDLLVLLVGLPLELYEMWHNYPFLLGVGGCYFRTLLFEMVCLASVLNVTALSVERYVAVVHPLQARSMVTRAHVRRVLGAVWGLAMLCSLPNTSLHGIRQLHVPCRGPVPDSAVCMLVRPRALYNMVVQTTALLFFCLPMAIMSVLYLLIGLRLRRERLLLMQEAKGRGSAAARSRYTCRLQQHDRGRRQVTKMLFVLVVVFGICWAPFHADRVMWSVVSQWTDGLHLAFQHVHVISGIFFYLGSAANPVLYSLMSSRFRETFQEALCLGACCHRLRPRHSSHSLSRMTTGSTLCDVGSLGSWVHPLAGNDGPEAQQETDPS

[9] = target: T4, Neuropeptide Y receptor type 5 (Homo sapiens) (UniProt Q15761); experiment: Agonist activity at human NPY5 receptor at 100 uM to 5 mM
T4 sequence (whole entry): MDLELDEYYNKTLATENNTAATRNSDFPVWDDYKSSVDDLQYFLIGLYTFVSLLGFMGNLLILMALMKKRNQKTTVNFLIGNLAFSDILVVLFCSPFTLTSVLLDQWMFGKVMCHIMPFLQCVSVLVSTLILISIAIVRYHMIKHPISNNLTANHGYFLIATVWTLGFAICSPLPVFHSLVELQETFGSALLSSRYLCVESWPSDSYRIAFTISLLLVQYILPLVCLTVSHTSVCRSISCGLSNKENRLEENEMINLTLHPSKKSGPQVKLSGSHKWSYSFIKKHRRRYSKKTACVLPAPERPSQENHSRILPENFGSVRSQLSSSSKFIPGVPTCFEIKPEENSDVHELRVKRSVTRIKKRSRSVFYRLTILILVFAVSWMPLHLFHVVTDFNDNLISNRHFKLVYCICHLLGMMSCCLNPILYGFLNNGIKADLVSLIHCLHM

[10] = target: Melanocortin receptor 5 (Mus musculus) (UniProt P41149); experiment: Agonist activity at mouse MC5 receptor at 100 uM to 5 mM
Sequence of Melanocortin receptor 5 (Mus musculus) (P41149 whole entry): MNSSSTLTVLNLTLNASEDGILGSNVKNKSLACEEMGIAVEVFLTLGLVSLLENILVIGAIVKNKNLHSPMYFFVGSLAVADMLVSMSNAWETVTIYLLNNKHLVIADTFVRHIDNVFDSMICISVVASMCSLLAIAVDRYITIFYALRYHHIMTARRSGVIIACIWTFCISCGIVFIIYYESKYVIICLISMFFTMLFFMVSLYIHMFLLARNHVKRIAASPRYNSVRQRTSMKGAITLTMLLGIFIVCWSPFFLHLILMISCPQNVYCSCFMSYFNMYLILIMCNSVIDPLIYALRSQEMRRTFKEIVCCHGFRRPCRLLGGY

[11] = target: T5, C5a anaphylatoxin chemotactic receptor 1 (Homo sapiens) (UniProt P21730); experiment: Agonist activity at human C5a receptor at 100 uM to 5 mM
T5 sequence (whole entry): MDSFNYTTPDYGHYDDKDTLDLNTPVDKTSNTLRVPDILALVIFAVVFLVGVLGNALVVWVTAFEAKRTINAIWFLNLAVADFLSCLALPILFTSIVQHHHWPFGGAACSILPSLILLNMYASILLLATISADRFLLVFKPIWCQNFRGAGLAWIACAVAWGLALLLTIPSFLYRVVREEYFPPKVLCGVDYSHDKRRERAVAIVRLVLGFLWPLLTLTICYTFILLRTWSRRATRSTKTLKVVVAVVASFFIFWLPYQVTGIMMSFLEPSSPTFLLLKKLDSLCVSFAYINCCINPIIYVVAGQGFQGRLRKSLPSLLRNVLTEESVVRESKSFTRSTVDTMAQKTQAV

[12] = target: Melanocortin receptor 3 (Homo sapiens) (UniProt P41968); experiment: Agonist activity at human MC3 receptor at 100 uM to 5 mM
Sequence of Melanocortin receptor 3 (Homo sapiens) (P41968 whole entry): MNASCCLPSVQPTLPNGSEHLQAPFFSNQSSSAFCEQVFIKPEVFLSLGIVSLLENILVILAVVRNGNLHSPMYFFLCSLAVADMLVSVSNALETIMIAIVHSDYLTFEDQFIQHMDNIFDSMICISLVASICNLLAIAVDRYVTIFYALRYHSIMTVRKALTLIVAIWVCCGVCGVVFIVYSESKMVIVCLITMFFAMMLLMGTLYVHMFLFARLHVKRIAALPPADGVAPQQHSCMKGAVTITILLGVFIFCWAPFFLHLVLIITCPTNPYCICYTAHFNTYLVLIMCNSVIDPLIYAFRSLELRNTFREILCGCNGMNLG

[13] = target: Melanocyte-stimulating hormone receptor (Mus musculus) (UniProt Q01727); experiment: Agonist activity at mouse MC1 receptor at 100 uM to 5 mM
Sequence of Melanocyte-stimulating hormone receptor (Mus musculus) (Q01727 whole entry, looked up): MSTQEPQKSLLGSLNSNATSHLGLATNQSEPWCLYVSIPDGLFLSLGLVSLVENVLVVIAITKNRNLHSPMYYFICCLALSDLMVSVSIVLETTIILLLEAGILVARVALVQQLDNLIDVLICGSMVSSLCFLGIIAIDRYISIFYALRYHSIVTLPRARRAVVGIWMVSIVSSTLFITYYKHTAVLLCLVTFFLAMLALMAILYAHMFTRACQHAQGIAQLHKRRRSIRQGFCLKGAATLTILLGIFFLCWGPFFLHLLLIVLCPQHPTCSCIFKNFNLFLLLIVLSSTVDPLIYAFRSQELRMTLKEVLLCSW

[14] = target: Melanocyte-stimulating hormone receptor (Homo sapiens) (UniProt Q01726); experiment: Agonist activity at human MC1 receptor at 100 uM to 5 mM
Sequence of Melanocyte-stimulating hormone receptor (Homo sapiens) (Q01726 whole entry, looked up): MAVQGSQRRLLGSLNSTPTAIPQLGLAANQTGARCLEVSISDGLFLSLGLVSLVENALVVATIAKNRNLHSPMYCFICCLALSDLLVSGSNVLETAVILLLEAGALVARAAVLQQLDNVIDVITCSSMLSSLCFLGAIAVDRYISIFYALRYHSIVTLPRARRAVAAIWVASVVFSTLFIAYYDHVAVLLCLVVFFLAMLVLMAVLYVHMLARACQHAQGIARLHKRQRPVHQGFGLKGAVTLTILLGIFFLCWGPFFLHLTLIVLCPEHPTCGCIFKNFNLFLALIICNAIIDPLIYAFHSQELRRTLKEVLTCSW

Measured: Activity

Sequence of D(1B) dopamine receptor (Homo sapiens) (P21918 whole entry): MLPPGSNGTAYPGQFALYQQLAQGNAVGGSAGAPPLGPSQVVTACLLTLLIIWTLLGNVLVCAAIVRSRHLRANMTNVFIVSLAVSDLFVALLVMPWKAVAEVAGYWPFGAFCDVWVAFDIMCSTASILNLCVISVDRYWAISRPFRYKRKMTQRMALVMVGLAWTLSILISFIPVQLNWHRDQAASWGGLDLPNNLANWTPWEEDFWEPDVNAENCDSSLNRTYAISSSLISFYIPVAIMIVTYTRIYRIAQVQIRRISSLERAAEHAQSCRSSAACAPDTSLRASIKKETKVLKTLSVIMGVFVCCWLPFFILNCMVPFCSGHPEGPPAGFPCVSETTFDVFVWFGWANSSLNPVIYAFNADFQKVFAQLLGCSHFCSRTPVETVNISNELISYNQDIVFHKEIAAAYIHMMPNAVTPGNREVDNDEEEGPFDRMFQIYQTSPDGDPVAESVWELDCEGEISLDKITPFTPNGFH

COc1cc(-c2oc3ccccc3c(=O)c2O)ccc1O
inactive: all assays above

O=c1c(OCCO)c(-c2cc(Br)ccc2F)oc2ccccc12
inactive: all assays above

O=c1c(O)c(-c2cccc(Cl)c2F)oc2ccccc12
inactive: all assays above

O=c1cc(-c2ccccc2F)oc2ccccc12
inactive: all assays above

COc1ccc(C2C=Cc3ccccc3O2)cc1O (racemic)
inactive: all assays above

O=c1c(O)c(-c2c(F)cccc2Cl)oc2ccccc12
inactive: all assays above

Clc1ccc(C2C=Cc3ccccc3O2)c(Cl)c1 (racemic)
inactive: all assays above

O=c1c(O)c(-c2ccc(Br)cc2F)oc2ccccc12
inactive: all assays above

CN(C)c1ccc(C2C=Cc3ccccc3O2)cc1 (racemic)
inactive: all assays above

O=c1c(O)c(-c2ccc(O)c(O)c2)oc2ccccc12
inactive: all assays above

CN(C)c1ccc(-c2oc3ccccc3c(=O)c2O)cc1
inactive: all assays above

Reference: ChEMBL document CHEMBL3351764, “Design, synthesis and biological activity of flavonoid derivatives as selective agonists for neuromedin U 2 receptor” (Bioorg Med Chem, 2014)
